Consider 22 compounds from patent US8906914B2, “Ethylene diamine modulators of fatty acid hydrolase” (priority 2009, dated 2014).

The test system of one assay is anxiety. To be noted: rats; Kathuria 2003; cited from earlier work.
Assay [1] relates to thermal nociception. To be noted: rat; cited from earlier work.
In another assay the test system is nociception. As to conditions: rat; Kathuria 2003; cited from earlier work.
For assay [2], the target named is T1, FAAH (Homo sapiens, UniProt O00519).
T1 sequence (O00519 1-579): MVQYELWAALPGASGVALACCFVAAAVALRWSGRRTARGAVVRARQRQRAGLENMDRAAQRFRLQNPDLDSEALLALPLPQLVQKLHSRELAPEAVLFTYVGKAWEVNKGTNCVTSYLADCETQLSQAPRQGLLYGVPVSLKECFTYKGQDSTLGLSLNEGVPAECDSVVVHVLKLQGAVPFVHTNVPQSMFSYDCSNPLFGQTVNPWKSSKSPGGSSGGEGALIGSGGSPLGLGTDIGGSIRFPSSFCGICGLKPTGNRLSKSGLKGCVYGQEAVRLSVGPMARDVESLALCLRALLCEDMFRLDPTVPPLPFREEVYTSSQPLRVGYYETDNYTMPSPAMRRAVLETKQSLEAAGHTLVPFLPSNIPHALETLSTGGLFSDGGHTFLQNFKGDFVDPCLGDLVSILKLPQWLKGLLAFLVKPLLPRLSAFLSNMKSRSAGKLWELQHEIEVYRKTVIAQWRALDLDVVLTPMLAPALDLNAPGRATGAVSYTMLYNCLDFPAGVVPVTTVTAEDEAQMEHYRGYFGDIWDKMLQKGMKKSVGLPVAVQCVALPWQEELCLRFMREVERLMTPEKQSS
As to conditions: reported; cited from earlier work.

Assay [3] relates to thermal nociception. As to conditions: rats; WO 04/033652; cited from earlier work.
Another assay concerns the target T2, Rat FAAH-1 (Rattus norvegicus, UniProt P97612).
T2 construct: expressed in transfected cells
T2 sequence (P97612 1-579): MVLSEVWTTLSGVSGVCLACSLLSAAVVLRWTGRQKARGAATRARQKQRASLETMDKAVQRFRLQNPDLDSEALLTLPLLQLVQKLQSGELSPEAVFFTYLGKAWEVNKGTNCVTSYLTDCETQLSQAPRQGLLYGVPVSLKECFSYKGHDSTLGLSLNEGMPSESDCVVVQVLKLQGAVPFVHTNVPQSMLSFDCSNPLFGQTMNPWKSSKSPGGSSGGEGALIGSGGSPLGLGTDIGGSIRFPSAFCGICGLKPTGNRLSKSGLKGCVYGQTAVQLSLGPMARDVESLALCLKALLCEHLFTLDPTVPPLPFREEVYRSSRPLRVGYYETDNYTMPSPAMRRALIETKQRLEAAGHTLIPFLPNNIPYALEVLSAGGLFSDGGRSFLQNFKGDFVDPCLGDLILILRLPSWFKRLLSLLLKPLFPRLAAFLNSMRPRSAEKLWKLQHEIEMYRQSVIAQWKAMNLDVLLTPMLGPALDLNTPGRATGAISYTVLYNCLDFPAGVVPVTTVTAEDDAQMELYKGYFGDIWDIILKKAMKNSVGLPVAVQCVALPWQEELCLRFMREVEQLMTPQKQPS
The assay can be described thus: Rat FAAH-1 assay (Assay Method 2), 3H-anandamide hydrolysis in cell homogenate. The format is biochemical. In outline: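 Homogenate of SK-N-MC cells stably transfected with rat FAAH cDNA, incubated with test compound and 80 nM final 3H-anandamide (ethanolamine-labelled) for 1 h at rt. Released 3H-ethanolamine separated from substrate on activated charcoal filters by centrifugation and counted by scintillation.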

Assay [4] addresses T1, FAAH. The assay can be described thus: Human FAAH assay (Assay Method 1), 3H-anandamide hydrolysis in cell homogenate. The format is biochemical. On the set-up: expressed in transfected cells; alternatively T84 frozen cell pellets (endogenous FAAH). In outline:
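Homogenate of SK-N-MC cells stably transfected with human FAAH, incubated with compound and 80 nM (final) 3H-anandamide for 1 h at rt. Released 3H-ethanolamine separated from substrate on activated charcoal by centrifugation and counted by scintillation; ">" values denote solubility limit or top concentration tested.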

Another assay has as its system spasticity. To be noted: Baker 2001; cited from earlier work.
Another assay has as its system neuropathic pain. To be noted: rats; WO 02/087569; cited from earlier work.
The test system of assay [5] is acute thermal nociception. As to conditions: rats; WO 02/087569; cited from earlier work.

Counter-ions that a name gives are not always drawn.

On to `NC(=O)c1cccc(-c2cccc(OC(=O)NC3CCCCC3)c2)c1` [URB-597], for which the “efficacy in zero plus maze model of anxiety” value in the assay with anxiety is “efficacy”. Moreover, the “analgesic efficacy/activity in hot plate test” value with thermal nociception [1] was “analgesic efficacy”. The “analgesic efficacy in formalin test” value with nociception was “analgesic efficacy”.

For the compound `O=C(CCCCCCc1ccccc1)c1ncc(-c2ccccn2)o1` [OL-135], the “analgesic efficacy/activity in hot plate test” value in the assay with thermal nociception [1] is recorded as “analgesic activity”. In addition, the “inhibition of FAAH” value at FAAH [2] is listed as “potent inhibitor”. Also, the “analgesic activity in tail emersion test” value in the assay on thermal nociception [3] was “analgesic activity”.

As to `N[C@H](CNc1cc(-c2ccc(C(F)(F)F)c(Cl)c2)ncn1)c1ccccc1` [Example 3, (1S)—N^2-{6-[3-Chloro-4-(trifluoromethyl)phenyl]pyrimidin-4-yl}-1-phenylethane-1,2-diamine hydrochloride acid salt], the IC50 against Rat FAAH-1 is 2400 nM; on FAAH [4] it was 1300 nM.

In the case of `CCCCCCCCCCCCCCCCS(=O)(=O)F` [AM374], in the assay on spasticity, the “spasticity in CREAE mice” value is reported as “significantly reduce spasticity”.

On to `N[C@H](CNc1cc(-c2ccc(C(F)(F)F)c(Cl)c2)ncn1)c1ccc(C(F)(F)F)cc1` [Example 29, (1S)—N^2-[6-(3-Chloro-4-trifluoromethyl-phenyl)-pyrimidin-4-yl]-1-(4-trifluoromethyl-phenyl)-ethane-1,2-diamine], for which the values for the IC50 on Rat FAAH-1 and against FAAH [4] were 1700 nM and 1400 nM, respectively.

For `N#Cc1ccc([C@@H](N)CNc2cc(-c3ccc(C(F)(F)F)c(Cl)c3)ncn2)cc1F` [Example 52, (1R)-4-{1-Amino-2-[6-(3-chloro-4-trifluoromethyl-phenyl)-pyrimidin-4-ylamino]-ethyl}-2-fluoro-benzonitrile], the IC50 worked out at 240 nM against Rat FAAH-1 and 130 nM at FAAH [4].

In the case of `N#Cc1cccc([C@@H](N)CNc2cc(-c3ccc(C(F)(F)F)c(Cl)c3)ncn2)c1` [Example 49, (1R)-3-{1-Amino-2-[6-(3-chloro-4-trifluoromethyl-phenyl)-pyrimidin-4-ylamino]-ethyl}-benzonitrile], the IC50 at Rat FAAH-1 stood at 770 nM; at FAAH [4], 1000 nM.

In the case of `N[C@@H](CNc1cc(-c2ccc(C(F)(F)F)c(Cl)c2)ncn1)c1ccc(Cl)c(F)c1` [Example 45, (1R)—N^2-1-(4-Chloro-3-fluoro-phenyl)-[6-(3-chloro-4-trifluoromethyl-phenyl)-pyrimidin-4-yl]-ethane-1,2-diamine], the results for the IC50 against Rat FAAH-1 and on FAAH [4] were 70 nM and 80 nM, respectively.

On to `N[C@@H](CNc1cc(-c2ccc(Cl)cc2)ncn1)c1ccccc1` [Example 14, (1R)—N^2-[6-(4-Chlorophenyl)pyrimidin-4-yl]-1-phenylethane-1,2-diamine hydrochloride acid salt], for which the IC50 is more than 10000 nM on Rat FAAH-1 and 1000 nM against FAAH [4].

Turning to `N[C@@H](CNc1cc(-c2ccc3c(c2)OC(F)(F)O3)ncn1)c1ccccc1` [Example 24, (1R)—N^2-[6-(2,2-Difluoro-1,3-benzodioxol-5-yl)pyrimidin-4-yl]-1-phenylethane-1,2-diamine hydrochloride acid salt], the half-maximal inhibitory concentration (IC50) was 1000 nM at Rat FAAH-1 and 270 nM against FAAH [4].

In the case of `CCSc1ccc(-c2cc(NC[C@H](N)c3ccccc3)ncn2)cc1` [Example 22, (1R)—N^2-{6-[4-(Ethylsulfanyl)phenyl]pyrimidin-4-yl}-1-phenylethane-1,2-diamine hydrochloride acid salt], the IC50 was determined as 240 nM on Rat FAAH-1 and 7 nM against FAAH [4].

For `CSc1ccc([C@@H](N)CNc2cc(-c3ccc(C(F)(F)F)c(Cl)c3)ncn2)cc1` [Example 54, (1R)—N^2-[6-(3-Chloro-4-trifluoromethyl-phenyl)-pyrimidin-4-yl]-1-(4-methylsulfanyl-phenyl)-ethane-1,2-diamine], the IC50 against Rat FAAH-1 was 150 nM; against FAAH [4], 220 nM.

For the compound `CN(C)S(=O)(=O)c1ccc(-c2cc(NC[C@H](N)c3ccccc3)ncn2)cc1` [Example 23, 4-(6-{[(2R)-2-Amino-2-phenylethyl]amino}pyrimidin-4-yl)-N,N-dimethylbenzenesulfonamide hydrochloride acid salt], the IC50 worked out at 1600 nM against Rat FAAH-1 and 113 nM on FAAH [4].

For the compound `CCOc1ccc(-c2cc(NC[C@H](N)c3ccccc3)ncn2)cc1C(F)(F)F` [Example 10, (1R)—N^2-{6-[4-Ethoxy-3-(trifluoromethyl)phenyl]pyrimidin-4-yl}-1-phenylethane-1,2-diamine hydrochloride acid salt], the figures for the 50% inhibitory concentration (IC50) against Rat FAAH-1 and against FAAH [4] were 84 nM and 26 nM, respectively.

For `Cc1nc(-c2ccccc2)c(-c2ccccc2)n1CCCCCCNC(=O)Oc1ccccc1F` [BMS-1], the “analgesic effect in Chung spinal nerve ligation model” value in the assay with neuropathic pain is “analgesic effect”. Besides, the “analgesic effect in Hargraves test” value in [5] is recorded as “analgesic effect”.

On to `N[C@@H](CNc1cc(-c2ccc(C(F)(F)F)c(Cl)c2)ncn1)c1ccc(Cl)cc1` [Example 39, (1R)—N^2-1-(4-Chloro-phenyl)-[6-(3-chloro-4-trifluoromethyl-phenyl)-pyrimidin-4-yl]-ethane-1,2-diamine, trifluoroacetic acid salt], for which the IC50 against Rat FAAH-1 stood at 40 nM; at FAAH [4], 66 nM.

Consider `N[C@@H](CNc1cc(-c2ccc(OC(F)(F)F)c(F)c2)ncn1)c1ccccc1` [Example 8, (1R)—N^2-{6-[3-Fluoro-4-(trifluoromethoxy)phenyl]pyrimidin-4-yl}-1-phenylethane-1,2-diamine hydrochloride acid salt], for which the half-maximal inhibitory concentration (IC50) is 170 nM against Rat FAAH-1 and 50 nM against FAAH [4].

On to `N[C@@H](CNc1cc(-c2ccc(OCC(F)(F)F)c(F)c2)ncn1)c1ccccc1` [Example 21, (1R)—N^2-{6-[3-Fluoro-4-(2,2,2-trifluoroethoxy)phenyl]pyrimidin-4-yl}-1-phenylethane-1,2-diamine hydrochloride acid salt], for which the IC50 on Rat FAAH-1 came to 675 nM; against FAAH [4] it was 77 nM.

With `N[C@@H](CNc1cc(-c2ccc(C(F)(F)F)c(Cl)c2)ncn1)c1ccc(F)c(F)c1` [Example 41, (1R)—N^2-[6-(3-Chloro-4-trifluoromethyl-phenyl)-pyrimidin-4-yl]-1-(3,4-difluoro-phenyl)-ethane-1,2-diamine, trifluoroacetic acid salt], the IC50 worked out at 60 nM on Rat FAAH-1 and 20 nM against FAAH [4].

Take `N[C@H](CNc1cc(-c2ccc(C(F)(F)F)c(Cl)c2)ncn1)c1cccc(F)c1` [Example 36, (1S)—N^2-[6-(3-Chloro-4-trifluoromethyl-phenyl)-pyrimidin-4-yl]-1-(3-fluoro-phenyl)-ethane-1,2-diamine, trifluoroacetic acid salt]: the IC50 is 2600 nM against Rat FAAH-1 and 1000 nM against FAAH [4].

As to `N[C@@H](CNc1cc(-c2ccc(C(F)(F)F)c(Cl)c2)ncn1)c1ccccc1` [Example 1, (1R)—N^2-{6-[3-Chloro-4-(trifluoromethyl)phenyl]pyrimidin-4-yl}-1-phenylethane-1,2-diamine hydrochloride acid salt], the results for the IC50 against Rat FAAH-1 and against FAAH [4] were 60 nM and 50 nM, respectively.

For `N[C@@H](CNc1cc(-c2ccc(C(F)(F)F)c(Cl)c2)ncn1)c1ccc2c(c1)OC(F)(F)O2` [Example 32, (1R)—N^2-[6-(3-Chloro-4-trifluoromethyl-phenyl)-pyrimidin-4-yl]-1-(2,2-difluoro-benzo[1,3]dioxol-5-yl)-ethane-1,2-diamine], the IC50 against Rat FAAH-1 is 11 nM; against FAAH [4] it was 30 nM.

A word on the IC50: it is the point on the concentration scale where inhibition reaches its midpoint.
